# Test results reported in PubChem BioAssay AID1845201 (Molecular Pharmacology Branch, DTP, NCI, 2023).
# “And” between values parts separate entries of the source, which are not always exact repeats. Identical values can stand only once.
# Test system: COR L88 complex tumor spheroid viability
# Assay: Anticancer human tumor COR L88 cell line growth inhibition;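 also: compound exposure lasted 7 days before viability readout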;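 as to viability, T/C: percent of DMSO vehicle-treated spheroids = 100%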
# Settings: for viability, T/C: stronger effect = lower value
# Method in brief: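 Complex spheroids of malignant cells with endothelial cells and mesenchymal stem cells; agents alone or combined, from near clinical Cmax (or 10 microM if unknown) down in half-log steps, 0.25% DMSO final.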
smiles,measurement,setting,value
COc1ccc([C@@H](O)c2cc(-c3ncnc4cc(N5CCOCC5)ccc34)c(F)cc2Cl)nn1 + COc1cc2c(cc1O)CCNC21CSC2c3c(OC(C)=O)c(C)c4c(c3C(COC1=O)N1C(O)C3Cc5cc(C)c(OC)c(O)c5C(C21)N3C)OCO4,IC50,"curve of first compound, second compound 30 pM",7580 nM
same,IC50,"curve of first compound, second compound 94.9 pM",> 10000 nM
same,IC50,"curve of first compound, second compound 0.0003 µM",1150 nM
same,IC50,"curve of first compound, second compound 0.000949 µM",111 nM
same,IC50,"curve of first compound, second compound 0.003 µM",< 31.6 nM
same,"viability, T/C","second compound 30 pM, first compound 0.0316 µM",100%
same,"viability, T/C","second compound 30 pM, first compound 0.1 µM",115%
same,"viability, T/C","second compound 30 pM, first compound 0.316 µM",93.9%
same,"viability, T/C","second compound 30 pM, first compound 1 µM",89.2%
same,"viability, T/C","second compound 30 pM, first compound 3.16 µM",64.6%
same,"viability, T/C","second compound 30 pM, first compound 10 µM",45.3%
same,"viability, T/C","second compound 94.9 pM, first compound 0.0316 µM",104%
same,"viability, T/C","second compound 94.9 pM, first compound 0.1 µM",108%
same,"viability, T/C","second compound 94.9 pM, first compound 0.316 µM",102%
same,"viability, T/C","second compound 94.9 pM, first compound 1 µM",67.8%
same,"viability, T/C","second compound 94.9 pM, first compound 3.16 µM",57.4%
same,"viability, T/C","second compound 94.9 pM, first compound 10 µM",52.2%
same,"viability, T/C","second compound 0.0003 µM, first compound 0.0316 µM",71.4%
same,"viability, T/C","second compound 0.0003 µM, first compound 0.1 µM",63.9%
same,"viability, T/C","second compound 0.0003 µM, first compound 0.316 µM",61.7%
same,"viability, T/C","second compound 0.0003 µM, first compound 1 µM",52.5%
same,"viability, T/C","second compound 0.0003 µM, first compound 3.16 µM",35.8%
same,"viability, T/C","second compound 0.0003 µM, first compound 10 µM",9.95%
same,"viability, T/C","second compound 0.000949 µM, first compound 0.0316 µM",63.2%
same,"viability, T/C","second compound 0.000949 µM, first compound 0.1 µM",51.9%
same,"viability, T/C","second compound 0.000949 µM, first compound 0.316 µM",22.9%
same,"viability, T/C","second compound 0.000949 µM, first compound 1 µM",1.63%
same,"viability, T/C","second compound 0.000949 µM, first compound 3.16 µM",0.6%
same,"viability, T/C","second compound 0.000949 µM, first compound 10 µM",1.43%
same,"viability, T/C","second compound 0.003 µM, first compound 0.0316 µM",0.95%
same,"viability, T/C","second compound 0.003 µM, first compound 0.1 µM",1.03%
same,"viability, T/C","second compound 0.003 µM, first compound 0.316 µM",1.37%
same,"viability, T/C","second compound 0.003 µM, first compound 1 µM",2.44%
same,"viability, T/C","second compound 0.003 µM, first compound 3.16 µM",2.37%
same,"viability, T/C","second compound 0.003 µM, first compound 10 µM",2.01%
[2H]c1nc(C)nc([2H])c1-c1cc(NC[C@@H](C)c2cccc3c(C(=O)NC)ccnc23)ncn1,"viability, T/C",compound 0.0316 µM,101% and 94.7% and 105%
same,"viability, T/C",compound 0.1 µM,99.9% and 96.5% and 98.1%
same,"viability, T/C",compound 0.316 µM,109% and 101% and 102%
same,"viability, T/C",compound 1 µM,88.5% and 106% and 102%
same,"viability, T/C",compound 3.16 µM,92.1% and 95.2% and 96.4%
same,"viability, T/C",compound 10 µM,91.8% and 97.2% and 103%
same,IC50,curve of compound,> 10000 nM
